Source: US8044069B2, “Compounds as calcium channel blockers” (Abbott Laboratories, priority 2008, dated 2011)

Experiments:
Sprague Dawley rats = test: Capsaicin induced secondary mechanical hyperalgesia model; assay type: in vivo; conditions: Rattus norvegicus, po, 1 h; 30 mg/kg p.o., 60 minutes before testing; secondary mechanical hyperalgesia 180 minutes after capsaicin; von Frey paw withdrawal threshold
Procedure: (ii) In Vivo Data—Capsaicin Induced Secondary Mechanical Hyperalgesia Model:
Sprague Dawley rats were briefly restrained, and capsaicin was administered at 10 μg in 10 μL of vehicle by intraplantar injection into the center of the right hind paw. Secondary mechanical hyperalgesia (SMH) was measured at the heel away from the site of injection 180 minutes following capsaicin exposure. Compounds and gabapentin (positive control), were administered p.o. 60 minutes before testing (2 hours after capsaicin) or i.p. 30 minutes before testing (2.5 hours after capsaicin). SMH was measured using calibrated von Frey filaments (Stoelting, Woodale, Ill.). Following the 1 hour habituation in the testing room, rats were moved to individual plexiglass chambers that sit on top of a wire mesh to allow for access for stimulation of the plantar surface of the hind paws. Rats were allowed to acclimate to the new chambers for 15 minutes before the onset of testing. The paw withdrawal threshold was determined by increasing and decreasing stimulus intensity (force: g) and calculated using Dixon's up-down method (Chaplan, S. R.; Bach, F. W.; Pogrel, J. W.; Chung, J. M.; Yaksh, T. L.; Quantitative assessment of tactile allodynia in the rat paw. J. Neuroscience Methods 1994, 53(1), 55-63). The filaments (maximum force of 15.0 g) were held in place for 8 seconds or until there was a withdrawal response from the mechanical stimulation.

human Cav2.2 = human Cav2.2 (Homo sapiens, UniProt Q00975); test: Assessment of calcium channel activity using FLIPR (Ca2+ influx in IMR32 cells); assay type: cell-based; conditions: IMR32 cells endogenously expressing human Cav2.2; 60 minute pre-incubation; 2 μM nifedipine; depolarized with 80 mM KCl, 5 mM CaCl2
Chain of human Cav2.2 (Q00975 whole entry): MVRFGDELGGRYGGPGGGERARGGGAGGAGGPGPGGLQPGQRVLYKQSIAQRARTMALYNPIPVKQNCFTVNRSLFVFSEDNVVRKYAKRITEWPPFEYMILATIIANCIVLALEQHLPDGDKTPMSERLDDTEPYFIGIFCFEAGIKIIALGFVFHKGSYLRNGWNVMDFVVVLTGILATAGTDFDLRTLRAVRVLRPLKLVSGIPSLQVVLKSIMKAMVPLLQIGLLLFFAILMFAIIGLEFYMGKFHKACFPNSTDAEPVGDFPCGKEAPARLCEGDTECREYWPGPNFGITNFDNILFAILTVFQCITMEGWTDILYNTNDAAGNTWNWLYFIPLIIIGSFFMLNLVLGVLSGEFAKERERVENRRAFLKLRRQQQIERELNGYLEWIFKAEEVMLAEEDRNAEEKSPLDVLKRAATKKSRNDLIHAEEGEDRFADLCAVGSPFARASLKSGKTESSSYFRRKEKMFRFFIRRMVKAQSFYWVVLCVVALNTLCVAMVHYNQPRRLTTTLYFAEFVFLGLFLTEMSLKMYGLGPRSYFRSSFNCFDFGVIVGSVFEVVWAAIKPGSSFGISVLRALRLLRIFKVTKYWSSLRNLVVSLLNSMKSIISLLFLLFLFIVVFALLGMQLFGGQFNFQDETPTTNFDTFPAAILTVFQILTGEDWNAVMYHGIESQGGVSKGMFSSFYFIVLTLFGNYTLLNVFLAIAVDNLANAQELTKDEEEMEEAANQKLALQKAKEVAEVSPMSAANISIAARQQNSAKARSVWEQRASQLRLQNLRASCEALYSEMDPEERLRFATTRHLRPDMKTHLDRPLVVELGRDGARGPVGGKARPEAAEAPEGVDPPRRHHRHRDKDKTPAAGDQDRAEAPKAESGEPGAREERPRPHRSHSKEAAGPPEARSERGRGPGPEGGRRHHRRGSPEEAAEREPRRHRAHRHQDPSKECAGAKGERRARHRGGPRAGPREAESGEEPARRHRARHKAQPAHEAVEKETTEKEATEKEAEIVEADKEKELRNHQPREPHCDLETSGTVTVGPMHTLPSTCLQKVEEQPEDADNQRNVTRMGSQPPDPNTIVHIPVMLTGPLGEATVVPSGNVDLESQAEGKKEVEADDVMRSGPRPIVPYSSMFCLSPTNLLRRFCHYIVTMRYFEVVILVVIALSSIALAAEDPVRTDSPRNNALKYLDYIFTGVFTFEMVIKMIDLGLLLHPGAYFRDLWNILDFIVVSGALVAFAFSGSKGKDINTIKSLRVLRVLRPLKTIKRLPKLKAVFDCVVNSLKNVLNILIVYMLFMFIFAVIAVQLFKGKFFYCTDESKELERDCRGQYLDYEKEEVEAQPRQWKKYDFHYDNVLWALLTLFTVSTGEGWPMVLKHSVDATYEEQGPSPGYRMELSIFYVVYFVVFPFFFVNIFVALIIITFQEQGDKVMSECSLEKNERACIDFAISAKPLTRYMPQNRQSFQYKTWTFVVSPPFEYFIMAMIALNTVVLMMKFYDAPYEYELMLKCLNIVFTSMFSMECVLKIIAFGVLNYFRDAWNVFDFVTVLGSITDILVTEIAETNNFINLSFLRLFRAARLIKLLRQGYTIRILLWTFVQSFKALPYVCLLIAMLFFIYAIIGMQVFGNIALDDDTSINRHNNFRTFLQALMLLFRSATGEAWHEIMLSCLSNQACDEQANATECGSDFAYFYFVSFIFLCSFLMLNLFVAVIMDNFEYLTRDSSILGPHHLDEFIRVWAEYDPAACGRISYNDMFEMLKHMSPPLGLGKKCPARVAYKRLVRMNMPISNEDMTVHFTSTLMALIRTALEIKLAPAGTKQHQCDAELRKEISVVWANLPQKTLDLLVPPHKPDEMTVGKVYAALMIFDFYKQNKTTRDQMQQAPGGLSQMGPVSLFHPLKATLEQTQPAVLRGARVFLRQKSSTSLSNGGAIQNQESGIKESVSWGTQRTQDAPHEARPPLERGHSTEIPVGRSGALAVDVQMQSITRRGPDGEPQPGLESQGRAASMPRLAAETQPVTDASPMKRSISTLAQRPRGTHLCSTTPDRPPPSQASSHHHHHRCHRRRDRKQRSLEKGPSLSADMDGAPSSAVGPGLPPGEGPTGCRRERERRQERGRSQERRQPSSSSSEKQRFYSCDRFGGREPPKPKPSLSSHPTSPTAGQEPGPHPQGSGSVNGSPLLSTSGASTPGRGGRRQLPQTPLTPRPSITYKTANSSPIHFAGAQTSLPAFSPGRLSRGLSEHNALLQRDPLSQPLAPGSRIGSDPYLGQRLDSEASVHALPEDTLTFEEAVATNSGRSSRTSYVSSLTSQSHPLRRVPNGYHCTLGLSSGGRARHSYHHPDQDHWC
Chain of human Cav2.2 (P54289 25-951 partner limits assumed): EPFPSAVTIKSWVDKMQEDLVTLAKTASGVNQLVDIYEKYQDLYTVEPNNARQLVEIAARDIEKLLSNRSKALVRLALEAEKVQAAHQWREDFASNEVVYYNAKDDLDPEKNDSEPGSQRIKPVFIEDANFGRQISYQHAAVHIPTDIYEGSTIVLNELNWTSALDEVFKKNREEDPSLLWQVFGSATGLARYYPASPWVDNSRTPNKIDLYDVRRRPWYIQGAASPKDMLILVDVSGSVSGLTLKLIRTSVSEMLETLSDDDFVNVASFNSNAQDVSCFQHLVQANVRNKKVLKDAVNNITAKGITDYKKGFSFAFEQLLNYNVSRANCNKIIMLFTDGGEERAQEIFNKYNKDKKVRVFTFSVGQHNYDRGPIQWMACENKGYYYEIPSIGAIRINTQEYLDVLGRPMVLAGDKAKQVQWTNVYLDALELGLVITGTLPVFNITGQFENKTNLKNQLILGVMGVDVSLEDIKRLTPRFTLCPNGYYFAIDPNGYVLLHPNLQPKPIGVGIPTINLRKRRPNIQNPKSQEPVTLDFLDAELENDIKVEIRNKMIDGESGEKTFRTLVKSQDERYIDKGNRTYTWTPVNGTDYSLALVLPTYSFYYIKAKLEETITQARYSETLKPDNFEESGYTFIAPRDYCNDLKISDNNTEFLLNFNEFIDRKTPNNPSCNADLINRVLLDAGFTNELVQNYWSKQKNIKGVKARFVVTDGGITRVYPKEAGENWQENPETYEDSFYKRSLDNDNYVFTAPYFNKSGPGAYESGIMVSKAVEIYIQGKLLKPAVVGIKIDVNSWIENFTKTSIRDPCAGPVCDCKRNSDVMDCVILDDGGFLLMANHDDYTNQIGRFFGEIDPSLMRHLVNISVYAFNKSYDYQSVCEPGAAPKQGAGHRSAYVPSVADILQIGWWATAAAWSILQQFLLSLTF
Chain of human Cav2.2 (P54289 952-1103 partner limits assumed): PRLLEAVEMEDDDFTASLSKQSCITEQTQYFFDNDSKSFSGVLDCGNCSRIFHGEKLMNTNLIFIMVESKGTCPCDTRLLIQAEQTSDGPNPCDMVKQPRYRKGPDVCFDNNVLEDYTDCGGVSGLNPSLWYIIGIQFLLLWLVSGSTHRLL
Chain of human Cav2.2 (P54284 whole entry partner): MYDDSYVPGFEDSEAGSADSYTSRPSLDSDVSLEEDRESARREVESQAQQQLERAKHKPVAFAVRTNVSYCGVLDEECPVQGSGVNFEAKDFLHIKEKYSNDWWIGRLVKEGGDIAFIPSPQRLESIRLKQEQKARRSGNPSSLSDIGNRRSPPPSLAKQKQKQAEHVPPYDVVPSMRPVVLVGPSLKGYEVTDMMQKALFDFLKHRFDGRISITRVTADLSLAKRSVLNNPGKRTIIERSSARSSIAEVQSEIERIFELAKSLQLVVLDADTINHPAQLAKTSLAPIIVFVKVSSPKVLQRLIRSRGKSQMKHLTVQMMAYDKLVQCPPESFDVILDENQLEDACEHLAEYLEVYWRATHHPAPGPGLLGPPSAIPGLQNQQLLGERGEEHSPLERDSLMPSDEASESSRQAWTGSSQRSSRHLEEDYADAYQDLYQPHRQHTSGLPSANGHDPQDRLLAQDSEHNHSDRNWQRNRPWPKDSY
How it was run: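 IMR32 cells were dye-loaded and pre-incubated 60 min with compound (10 μM to 0.1 nM) in 1.3 mM CaCl2 plus 2 μM nifedipine to block L-type channels. Cells were then depolarized with 80 mM KCl while Ca2+ was raised to 5 mM, and FLIPR read the influx. IC50 came from a sigmoidal fit of % inhibition versus the no-inhibitor control.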

IC50 (human Cav2.2) | Structure (SMILES) | inhibition in vivo at 30 mg/kg (Sprague Dawley rats)
7.73 µM | O=C(CN1CCCC(c2ccccc2)C1=O)N1Cc2ccc(C(F)(F)F)cc2C1 (stereo not shown) [Example 178, 1-{2-oxo-2-[5-(trifluoromethyl)-1,3-dihydro-2H-isoindol-2-yl]ethyl}-3-phenylpiperidin-2-one] | 
3.89 µM | O=C(CN1CCC(c2ccccc2)(c2ccccc2)C1=O)NCc1ccc(F)cc1 [Example 12, N-(4-fluorobenzyl)-2-(2-oxo-3,3-diphenylpyrrolidin-1-yl)acetamide] | 
0.72 µM | O=C(CN1CCCC(c2ccccc2)(c2ccccc2)C1=O)NC1CN(Cc2ccc(F)c(C(F)(F)F)c2)C1 [Example 198, N-{1-[4-fluoro-3-(trifluoromethyl)benzyl]azetidin-3-yl}-2-(2-oxo-3,3-diphenylpiperidin-1-yl)acetamide] | 
8.39 µM | O=C(CN1CCNC(c2ccccc2)C1=O)N1CCN(C(c2ccccc2)c2ccccc2)CC1 (stereo not shown) [Example 102, 1-[2-(4-benzhydrylpiperazin-1-yl)-2-oxoethyl]-3-phenylpiperazin-2-one] | 
2.68 µM | COc1ccc(C2(c3ccc(OC)cc3)CCCN(CCCN(C)CCc3cc(OC)cc(OC)c3)C2=O)cc1 [Example 119, 1-{3-[[2-(3,5-dimethoxyphenyl)ethyl](methyl)amino]propyl}-3,3-bis(4-methoxyphenyl)piperidin-2-one] | 
1.1 µM | COc1ccccc1N1CCN(CCN2CCCC(c3ccc(F)cc3)(c3ccc(F)cc3)C2=O)CC1 [Example 137, 3,3-bis(4-fluorophenyl)-1-{2-[4-(2-methoxyphenyl)piperazin-1-yl]ethyl}piperidin-2-one] | 
3.44 µM | O=C1N(CCN2CCc3ccc(C(F)(F)F)cc3C2)CCC1(c1ccccc1)c1ccccc1 [Example 67, 3,3-diphenyl-1-{2-[7-(trifluoromethyl)-3,4-dihydroisoquinolin-2(1H)-yl]ethyl}pyrrolidin-2-one] | 
0.49 µM | O=C(CN1CCC(c2ccccc2)(c2ccccc2)C1=O)N[C@@H]1CC[C@H]2CN(Cc3cccc(C(F)(F)F)c3)C[C@H]21 (relative stereo) [Example 57, 2-(2-oxo-3,3-diphenylpyrrolidin-1-yl)-N-{(3aS*,4R*,6aR*)-2-[3-(trifluoromethyl)benzyl]octahydrocyclopenta[c]pyrrol-4-yl}acetamide] | 
9.89 µM | O=C(CN1CCC(c2ccc(F)cc2)C1=O)N1CCc2ccc(F)cc2C1 (stereo not shown) [Example 255, 1-[2-(7-fluoro-3,4-dihydroisoquinolin-2(1H)-yl)-2-oxoethyl]-3-(4-fluorophenyl)pyrrolidin-2-one] | 
6.78 µM | O=C1N(S(=O)(=O)c2cccc(C(F)(F)F)c2)CCCC1(c1ccccc1)c1ccccc1 [Example 146, 3,3-diphenyl-1-{[3-(trifluoromethyl)phenyl]sulfonyl}piperidin-2-one] | 
> 30 µM | O=C(CN1CCC(c2ccccc2)(c2ccccc2)C1=O)NCc1ncco1 [Example 168, N-(1,3-oxazol-2-ylmethyl)-2-(2-oxo-3,3-diphenylpyrrolidin-1-yl)acetamide] | 

The remaining lines, values behind:

Structure (SMILES) | IC50 (human Cav2.2) | inhibition in vivo at 30 mg/kg (Sprague Dawley rats)
O=C(CN1CCC(c2ccc(F)cc2)(c2ccc(F)cc2)C1=O)N1CCN(C(c2ccccc2)c2ccccc2)CC1 [Example 58, 1-[2-(4-benzhydrylpiperazin-1-yl)-2-oxoethyl]-3,3-bis(4-fluorophenyl)pyrrolidin-2-one] | 0.83 µM | 97%
O=C(CN1CCC(c2ccccc2)(c2ccccc2)C1=O)N1CCC(c2ccccc2)(c2ccccc2)C1 [Example 17, 1-[2-(3,3-diphenylpyrrolidin-1-yl)-2-oxoethyl]-3,3-diphenylpyrrolidin-2-one] | 0.78 µM | 50%
O=C(CN1CCCC(c2ccccc2)(c2ccccc2)C1=O)N1CCC(c2ccccc2)(c2ccccc2)CC1 [Example 72, 1-[2-(4,4-diphenylpiperidin-1-yl)-2-oxoethyl]-3,3-diphenylpiperidin-2-one] | 0.66 µM | 78%
O=C(CN1CCC(c2ccccc2)(c2ccccc2)C1=O)N1Cc2ccc(C(F)(F)F)cc2C1 [Example 20, 1-{2-oxo-2-[5-(trifluoromethyl)-1,3-dihydro-2H-isoindol-2-yl]ethyl}-3,3-diphenylpyrrolidin-2-one] | 2.82 µM | 
O=C(CN1CCCC(c2ccccc2)(c2ccccc2)C1=O)N1CCCC(c2ccccc2)(c2ccccc2)C1 [Example 71, 1-[2-(3,3-diphenylpiperidin-1-yl)-2-oxoethyl]-3,3-diphenylpiperidin-2-one] | 3.41 µM | 
O=C1N(S(=O)(=O)c2cccc(C(F)(F)F)c2)CCC1(c1ccccc1)c1ccccc1 [Example 144, 3,3-diphenyl-1-{[3-(trifluoromethyl)phenyl]sulfonyl}pyrrolidin-2-one] | 5.48 µM | 
O=C(CN1CCCC(c2ccccc2)(c2ccccc2)C1=O)N1CCC(c2ccc(F)cc2)CC1 [Example 244, 1-{2-[4-(4-fluorophenyl)piperidin-1-yl]-2-oxoethyl}-3,3-diphenylpiperidin-2-one] | 3.69 µM | 
O=C(CN1CCC(c2ccccc2)(c2ccccc2)C1=O)NCc1cccc(C(F)(F)F)c1 [Example 7, 2-(2-oxo-3,3-diphenylpyrrolidin-1-yl)-N-[3-(trifluoromethyl)benzyl]acetamide] | 2.33 µM | 
O=C(CN1CCC(c2ccccc2)(c2ccccc2)C1=O)N1CCC[C@H]2CN(C(c3ccccc3)c3ccccc3)C[C@H]21 [Example 50, 1-{2-[(4aS,7aS)-6-benzhydryloctahydro-1H-pyrrolo[3,4-b]pyridin-1-yl]-2-oxoethyl}-3,3-diphenylpyrrolidin-2-one] | 2.62 µM | 
O=C(CN1CCC(c2ccccc2)(c2ccccc2)C1=O)NCc1ccc(C(F)(F)F)nc1 [Example 2, 2-(2-oxo-3,3-diphenylpyrrolidin-1-yl)-N-{[6-(trifluoromethyl)pyridin-3-yl]methyl}acetamide] | 5.28 µM | 
O=C(CN1CCCC(c2ccc(F)cc2)(c2ccc(F)cc2)C1=O)N1CCC(c2ccccc2)(c2ccccc2)C1 [Example 172, 1-[2-(3,3-diphenylpyrrolidin-1-yl)-2-oxoethyl]-3,3-bis(4-fluorophenyl)piperidin-2-one] | 1.77 µM | 
COc1ccc2[nH]cc(C3=CCN(C(=O)CN4CCC(c5ccccc5)(c5ccccc5)C4=O)CC3)c2c1 [Example 35, 1-{2-[4-(5-methoxy-1H-indol-3-yl)-3,6-dihydropyridin-1(2H)-yl]-2-oxoethyl}-3,3-diphenylpyrrolidin-2-one] | 8.07 µM | 
O=C1N(Cc2nc(-c3ccc4[nH]ncc4c3)no2)CCCC1(c1ccccc1)c1ccccc1 [Example 154, 1-{[3-(1H-indazol-5-yl)-1,2,4-oxadiazol-5-yl]methyl}-3,3-diphenylpiperidin-2-one] | 5.15 µM | 
O=C(CN1CCC(c2ccc(F)cc2)(c2ccc(F)cc2)C1=O)Nc1ccc(Cl)cn1 [Example 225, 2-[3,3-bis(4-fluorophenyl)-2-oxopyrrolidin-1-yl]-N-(5-chloropyridin-2-yl)acetamide] | 2.48 µM | 
O=C(CN1CCC[C@@H](c2ccccc2)C1=O)N1Cc2ccc(F)cc2C1 (single isomer, unassigned) [Example 187] | > 30 µM | 
COc1ccc(CCN(C)CCN2CCCC(c3ccccc3)(c3ccccc3)C2=O)cc1OC [Example 118, 1-{2-[[2-(3,4-dimethoxyphenyl)ethyl](methyl)amino]ethyl}-3,3-diphenylpiperidin-2-one] | 2.46 µM | 
O=C(CN1CCCC(c2ccccc2)(c2ccccc2)C1=O)N1CCC(NC(c2ccccc2)c2ccccc2)CC1 [Example 87, 1-{2-[4-(benzhydrylamino)piperidin-1-yl]-2-oxoethyl}-3,3-diphenylpiperidin-2-one] | 0.76 µM | 
O=C(CN1CCCC(c2ccccc2)C1=O)NC1(c2ccc(F)cc2)CCC1 (stereo not shown) [Example 97, N-[1-(4-fluorophenyl)cyclobutyl]-2-(2-oxo-3-phenylpiperidin-1-yl)acetamide] | 10 µM | 
O=C1N(Cc2nc(CCc3ccccc3Cl)no2)CCCC1(c1ccccc1)c1ccccc1 [Example 262, 1-({3-[2-(2-chlorophenyl)ethyl]-1,2,4-oxadiazol-5-yl}methyl)-3,3-diphenylpiperidin-2-one] | 3.39 µM | 
O=C(CN1CCCC(c2ccccc2)(c2ccccc2)C1=O)N1CCC(O)(c2ccc(Cl)c(C(F)(F)F)c2)CC1 [Example 250, 1-(2-{4-[4-chloro-3-(trifluoromethyl)phenyl]-4-hydroxypiperidin-1-yl}-2-oxoethyl)-3,3-diphenylpiperidin-2-one] | 4.13 µM | 
Nc1ccc(-c2noc(CN3CCC(c4ccccc4)(c4ccccc4)C3=O)n2)cn1 [Example 234, 1-{[3-(6-aminopyridin-3-yl)-1,2,4-oxadiazol-5-yl]methyl}-3,3-diphenylpyrrolidin-2-one] | 6.54 µM | 
CC(CNC(=O)CN1CCC(c2ccc(F)cc2)(c2ccc(F)cc2)C1=O)(c1ccccc1)c1ccccc1 [Example 59, 2-[3,3-bis(4-fluorophenyl)-2-oxopyrrolidin-1-yl]-N-(2,2-diphenylpropyl)acetamide] | 2.38 µM | 
O=C1[C@@H](c2ccc(F)cc2)CCN1Cc1nc(-c2ccc(C(F)(F)F)cc2)no1 (single isomer, unassigned) [Example 237] | 2.81 µM | 
